Source: article PMC10890666, “Targeted Affinity Purification and Mechanism of Action of Angiotensin-Converting Enzyme (ACE) Inhibitory Peptides from Sea Cucumber Gonads” (Marine Drugs, 2024)
Like-named read-outs stand apart in the source and are kept apart here.

Columns and labels:
[1] = molecular target: angiotensin-converting enzyme (ACE); conditions: cited from earlier work; for IC50: read-out: IC50 (ACE inhibition)
Source text: The immobilization of ACE using various immobilization media is a promising affinity purification method to obtain shorter peptides from diverse sources. […] Feng et al. used a novel affinity medium Fe3O4@ZIF-90 and combined this method with reversed-phase high-performance liquid chromatography (RP-HPLC) and MALDI-TOF mass spectrometry to purify ... || Collectively, low-molecular-weight fractions isolated from SCGHs using the ultrafiltration method allowed us to obtain small peptides with potent ACE inhibitory activity. ACE inhibitory molecules are typically characterized by their small and short-chain peptide structures. In this study, a combination of ultrafiltration separation and SCGH effectively eliminated substances above 3 kDa. We further isolated the active components by utilizing an ACE enzyme affinity column, which facilitated the removal of other nonspecifically bound substances and yielded the target peptides. […] For instance, the experimentally purified short peptide DDQYHIF features Phe at the C-terminus, while HDWWKER has basic amino acids Arg and His at the C- and N-termini, respectively. Sun et al. reported that peptides with Arg at the C-termi ...

[2] = molecular target: T1, angiotensin-I-converting enzyme (ACE) (UniProt P12822 34-1260); test: cell-based or functional assay
T1 sequence (looked up): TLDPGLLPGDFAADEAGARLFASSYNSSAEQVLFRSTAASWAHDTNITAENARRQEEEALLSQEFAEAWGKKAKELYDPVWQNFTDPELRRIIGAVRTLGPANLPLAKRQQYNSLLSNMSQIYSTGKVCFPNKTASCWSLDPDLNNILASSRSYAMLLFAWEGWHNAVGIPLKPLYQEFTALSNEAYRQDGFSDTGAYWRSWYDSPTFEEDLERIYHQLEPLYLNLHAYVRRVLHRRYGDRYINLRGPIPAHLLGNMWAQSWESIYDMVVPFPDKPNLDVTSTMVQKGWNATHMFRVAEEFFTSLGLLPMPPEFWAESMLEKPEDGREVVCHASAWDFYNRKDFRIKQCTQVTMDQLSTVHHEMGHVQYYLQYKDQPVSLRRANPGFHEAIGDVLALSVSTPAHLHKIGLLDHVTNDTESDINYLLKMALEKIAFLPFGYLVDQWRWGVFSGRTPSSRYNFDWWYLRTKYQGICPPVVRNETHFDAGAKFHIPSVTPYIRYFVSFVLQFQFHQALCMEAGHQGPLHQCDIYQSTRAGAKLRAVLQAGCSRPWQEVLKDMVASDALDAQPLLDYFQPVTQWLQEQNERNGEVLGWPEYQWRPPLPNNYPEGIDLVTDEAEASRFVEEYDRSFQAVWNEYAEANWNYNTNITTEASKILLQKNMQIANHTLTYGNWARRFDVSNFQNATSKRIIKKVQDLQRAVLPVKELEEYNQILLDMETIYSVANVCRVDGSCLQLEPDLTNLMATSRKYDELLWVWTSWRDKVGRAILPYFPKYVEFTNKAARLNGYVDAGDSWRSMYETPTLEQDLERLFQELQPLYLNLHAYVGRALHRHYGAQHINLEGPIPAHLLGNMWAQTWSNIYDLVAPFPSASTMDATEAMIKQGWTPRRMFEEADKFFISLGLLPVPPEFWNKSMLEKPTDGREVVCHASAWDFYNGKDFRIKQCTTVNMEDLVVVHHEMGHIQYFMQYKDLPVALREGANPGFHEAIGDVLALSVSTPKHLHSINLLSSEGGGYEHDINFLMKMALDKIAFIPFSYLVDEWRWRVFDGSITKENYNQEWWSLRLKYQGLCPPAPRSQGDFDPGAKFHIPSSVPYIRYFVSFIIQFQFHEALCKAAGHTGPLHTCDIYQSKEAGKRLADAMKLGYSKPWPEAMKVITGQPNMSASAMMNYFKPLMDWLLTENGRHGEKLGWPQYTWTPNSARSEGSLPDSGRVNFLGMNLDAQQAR

[3] = from Ulva intestinalis, ref [32]

Question: For EIYR, which IC50 ([1]; from sea cucumber gonads, ref Zhong et al. (2018)) is on record?
Answer: The IC50 was 348 µM.

Question: For FGMPLDR, which IC50 [1, 3] is on record?
Answer: The IC50 was 219 µM.

Question: What does the source list for GMKCA?
Answer: ACE inhibition (in words) ([1]; ref [9]): ACE inhibitory peptide; IC50 ([1]; ref [9]): 45.7 µM

Question: For KNFL, which “ACE inhibition (in words)” value ([1]; from Undaria pinnatifida, ref [8]) is on record?
Answer: Its value is “ACE inhibitory peptide”.

Question: With LLYQEPVLGPVR as the molecule, how does the “ACE inhibition (in words)” value ([1]; from casein hydrolysate, ref [7]) read?
Answer: The value was “potent ACE inhibitory peptide”.

Question: For MELVLR, which IC50 [1, 3] is on record?
Answer: The IC50 was 237 µM.

Question: With “TLRFALHGME [novel peptide from Takifugu flavidus hydrolysate]” as the molecule, how does the IC50 ([1]; from Takifugu flavidus hydrolysate, ref [17]) read?
Answer: Its IC50 is 93.5 µM.

Question: With DDQYHIF as the molecule, how does the “IC50 of ACE inhibition (HHL substrate, HPLC)” value (from here on “IC50 of ACE inhibition”) [2] read?
Answer: The value was 334 µM.

Question: For HDWWKER, which “IC50 of ACE inhibition” value [2] is on record?
Answer: Its value is 584 µM.

Question: Which “IC50 of ACE inhibition” value [2] does the source give for THDWWKER here?
Answer: The value was 1290 µM.
